Drawing on paper PMC7938330 (Toxicology in vitro : an international journal published in …, 2020), this text covers IC50 for one compound.

In this experiment the target is Complex V (ATP synthase complex) (Bos taurus, UniProt P00829+P05631+P19483). In words: immunocapture-based OXPHOS activity assay. It counts as biochemical.

As a reminder, the IC50 is the point on the concentration scale where inhibition reaches its midpoint. A high value points to lower potency.

On to `C1CCC(C(CC2CCCCN2)C2CCCCC2)CC1` (stereo not shown) [perhexiline], for which the half-inhibitory concentration (IC50) is 10 nM.
